Measurements from patent US20130131008A1, “LIPOPHILIC MONOPHOSPHORYLATED DERIVATIVES AND NANOPARTICLES” (BOARD OF REGENTS, THE UNIVERSITY OF TEXAS SYSTEM, priority 2011, published 2013).
pIC50: −log10 of the molar value.

Columns and labels:
[1] = tested on: TC-1 mouse lung cancer cells (s.c. tumors); experiment: Anti-tumor activity of PLGA-GemC18-NPs in TC-1 tumor-bearing mice (Example 19); format: in vivo; details: C57BL/6 mice, i.v. twice a week from day 11, 150 μg GemC18 per mouse per dose or molar equivalent gemcitabine HCl
Protocol: The anti-tumor activity of the PLGA-GemC18-NPs was evaluated in female C57BL/6 mice (18-20 g, 6-8 weeks, n=4-5) that were subcutaneously (s.c.) injected with TC-1 mouse lung cancer cells (ATCC # CRL-2785, 5×10^5 cells/mouse) in the right flank. Mouse hair was carefully trimmed at the injection site 1 day prior to the injection. PLGA-GemC18-NPs, GemC18-free NP (PLGA-NPs), gemcitabine hydrochloride (HCl) (U.S. Pharmacopeia; Rockville, Md.) and sterile mannitol (5%, w/v) were intravenously (i.v) injected starting on day 11, twice a week until the end of the study. The dose of the GemC18 was 150 μg per mouse per dose, or the molar equivalent dose for gemcitabine HCl. Tumor size was determined 2-3 times a week and calculated using the formulas: diameter (mm)=[length+width]/2.

PANC-1 cells = experiment: Trypan blue exclusion assay of cell viability; format: cell-based, human; details: 400 μM
Protocol: Cell viability was determined using a trypan blue exclusion assay. Data shown are mean±S.D. (S.D.: standard deviation) (n=3). Experiment was repeated twice.

MIA PaCa-2 cells = details: literature value; read-out: IC50 in MIA PaCa-2 cells reported by Duxbury et al.; cited from earlier work

Cl.Nc1ccn([C@@H]2O[C@H](CO)[C@@H](O)C2(F)F)c(=O)n1 [Gemcitabine HCl, 2′,2′-difluorodeoxycytidine HCl, reference compound]
TC-1 tumor growth (tumor diameter) [1]: only slightly delayed the TC-1 tumor growth | Time to kill 50% of PANC-1 cells (PANC-1 cells): 116 h | pIC50 (MIA PaCa-2 cells): 7.40
